The values that follow come from ChEMBL document CHEMBL4190214, “Identification of BMI1 Promoter Inhibitors from Beaumontia murtonii and Eugenia operculata” (J Nat Prod, 2017).

pIC50: −log10 of the molar value.

For one test, the system named is DU-145. In words: Cytotoxicity against human DU145 cells after 24 hrs by fluorescein diacetate staining-based fluorescence assay. Particulars: DU-145, 24 h. Format: functional, cell-based.
Test [1] relates to Huh-7. Put plainly: Inhibition of self-renewal of human HuH7 cells assessed as EpCAM positive fraction at 0.5 uM after 20 mins by propidium iodide staining-based flow cytometric analysis (reference value: 91.2 %). On the set-up: scale not given: the % may be the effect or the level left. Format: functional. A general note: Flow cytometry measures light scatter and fluorescence of single cells or particles in a stream.

Test [2] deals with Huh-7. In words: Inhibition of self-renewal of human HuH7 cells assessed as EpCAM negative fraction at 0.5 uM after 20 mins by propidium iodide staining-based flow cytometric analysis (reference value: 8.8 %). Format: functional. Also on record: scale not given: the % may be the effect or the level left.
Test [3] deals with Huh-7. In words: Inhibition of self-renewal of human HuH7 cells assessed as EpCAM positive fraction at 5 uM after 20 mins by propidium iodide staining-based flow cytometric analysis (reference value: 91.2 %). Format: functional. Also on record: scale not given: the % may be the effect or the level left.
The species entered for another test is Homo sapiens. In words: Inhibition of BMI1 promoter in human HCT116 cells assessed as decrease in BMI1 protein expression levels after 24 hrs by Western blot analysis. In kind it is cell-based. For orientation: In western blotting, separated proteins are transferred to a membrane and probed.
The test system of test [4] is Huh-7. In words: Inhibition of self-renewal of human HuH7 cells assessed as EpCAM negative fraction at 5 uM after 20 mins by propidium iodide staining-based flow cytometric analysis (reference value: 8.8 %). In kind it is functional. On the set-up: scale not given: the % may be the effect or the level left.
Test [5] concerns Huh-7. Put plainly: Inhibition of self-renewal capacity of human EpCAM-positive HuH7 cells assessed as reduction in sphere formation after 6 days. In kind it is functional, cell-based.
In a further test the test system is HCT-116. In words: Cytotoxicity against human HCT116 cells after 24 hrs by fluorescein diacetate staining-based fluorescence assay. Format: functional, cell-based. Particulars: HCT-116, 24 h.
The subject of the next test is HEK293. Put plainly: Cytotoxicity against HEK293 cells after 24 hrs by fluorescein diacetate staining-based fluorescence assay. In kind it is cell-based. Particulars: Homo sapiens, HEK293, 24 h.
Test [6] can be described thus: Inhibition of BMI1 promoter (unknown origin) expressed in HEK293T cells after 24 hrs by luciferase reporter gene assay. In kind it is cell-based. Particulars: HEK-293T. (In general: Reporter assays use an easily measured gene product as a stand-in for the process of interest.)
The subject of test [7] is Huh-7. In words: Inhibition of self-renewal of human HuH7 cells assessed as reduction in EpCAM positive fraction at 50 uM after 20 mins by propidium iodide staining-based flow cytometric analysis. Particulars: Huh-7, 20 min. Format: functional.

For orientation: pIC50 means the negative decadic logarithm of the IC50, by convention in mol/L. As a reminder, the inhibition is the drop in the measured response relative to a control, in per cent. For `CO[C@@H]1C[C@H](O[C@H]2CC[C@@]3(C)[C@H](CC[C@@H]4[C@@H]3CC[C@]3(C)[C@@H](C5=CC(=O)OC5)CC[C@]43O)C2)O[C@@H](C)[C@@H]1O`, the pIC50 in the test on DU-145 was 6.85; in the test with HCT-116, 7.24; in the test on HEK293 it was 5.30; in [6] it was 7.03. Also, the Activity with Huh-7 [1] was determined as 80.1%; in the test with Huh-7 [2], 19.9%; in the test on Huh-7 [3], 72.9%; in the test with Huh-7 [4], 27.1%. Moreover, the inhibition entry in the test filed under Homo sapiens and in the test with Huh-7 [5] was “Dose-dependent effect” throughout.

In the case of `CO[C@H]1C[C@H](O[C@H]2CC[C@@]3(C)[C@H](CC[C@@H]4[C@@H]3CC[C@]3(C)[C@@H](C5=CC(=O)OC5)CC[C@]43O)C2)O[C@H](C)[C@H]1O`, the pIC50 in test [6] was 7.01.

For the molecule `C[C@]12CC[C@H](O)C[C@H]1CC[C@@H]1[C@@H]2CC[C@]2(C)[C@@H](C3=CC(=O)OC3)CC[C@]12O` [DIGITOXIGENIN], in test [6], the pIC50 is 5.77.

In test [6], `C=C(C)[C@@H]1CC[C@]2(C(=O)OC)CC[C@]3(C(=O)O)[C@H](CC[C@@H]4[C@@]5(C)CC[C@H](O)C(C)(C)[C@@H]5CC[C@]43C)[C@@H]12` had a negative-log IC50 (pIC50) of 4.71.

`CC1(C)CC[C@]2(C(=O)O)CC[C@]3(C)C(=CC[C@@H]4[C@@]5(C)C[C@@H](O)[C@H](O)C(C)(C)[C@@H]5CC[C@]43C)[C@@H]2C1` [MASLINIC ACID] showed a negative logarithm of the IC50 (pIC50) in test [6] of 4.64.

As to `O=[N+]([O-])c1ccc(Nc2ccccc2-c2ccccc2)c2nonc12`, the inhibition at 50 µM in the test with Huh-7 [7] fell in the range of 30 to 40%.

With `CO[C@H]1C[C@@H](O[C@H]2CC[C@@]3(C)[C@H](CC[C@@H]4[C@@H]3CC[C@]3(C)[C@@H](C5=CC(=O)OC5)CC[C@]43O)C2)O[C@@H](C)[C@@H]1O`, the pIC50 in test [6] is 6.35.
